Laboratory results: PMC2270722, “Influence of Cocoa Flavanols and Procyanidins on Free Radical-induced Human Erythrocyte Hemolysis” (Clinical and Developmental Immunology, 2005)

Experiments:
human erythrocytes = assay: in vitro AAPH-induced erythrocyte hemolysis, percent inhibition by purified flavonoids; format: cell-based; parameters: level of protection compared with ascorbic acid: dose or concentration left out as unconfirmed; conditions: for level of protection compared with ascorbic acid: Figure 3; for protection of human erythrocytes from free radical-induced hemolysis at lowest concentration: concentration as low as 2.5 mM; for protection against AAPH-induced erythrocyte hemolysis: concentrations 2.5 to 20 μM, 200 mM AAPH, 3 h
From the text: (§1) Influence of cocoa flavanols and procyanidins on free radical-induced human erythrocyte hemolysis QIN YAN ZHU1 , DEREK D. SCHRAMM1 , HEIDRUN B. GROSS1 , ROBERTA R. HOLT1 , SUN H. KIM3 , TOMOKO YAMAGUCHI4 , CATHERINE L. KWIK-URIBE5 , & CARL L. KEEN1,2 1 Department of Nutrition, University of California, One Shields Avenue, Davis, CA 95616-8669, 2 Internal Medicine, University of California, One Shields Avenue, Davis, CA 95616-8669, 3 Department of Food Service Management and Nutrition, Kongju National University, Republic of Korea, 4 Department of Food Science and Nutrition, Nara Women's University, Japan, and 5 Analytical & Applied Sciences, Mars Incorporated, Hackettstown, NJ, USA Abstract Cocoa can be a rich source of antioxidants including the flavan-3-ols, epicatechin and catechin, and their oligomers (procyanidins). While these flavonoids have been reported to reduce the rate of free radical-induced erythrocyte hemolysis in experimental animal models, little is known about their effect on human erythrocyte hemolysis. The major objective of this work was to study the effect of a flavonoid-rich cocoa beverage on the resistance of human erythrocytes to oxidative stress. A second objective was to assess the effects of select purified cocoa flavonoids, epicatechin, catechin, the procyanidin Dimer B2 and one of its major metabolites, 30 -O-methyl epicatechin, on free radical-induced erythrocyte hemolysis in vitro. Peripheral blood was obtained from 8 healthy subjects before and 1, 2, 4 and 8 h after consuming a flavonoid-rich cocoa beverage that provided 0.25 g/kg body weight (BW), 0.375 or 0.50 g/kg BW of cocoa. Plasma flavanol and dimer concentrations were determined for each subject. Erythrocyte hemolysis was evaluated using a controlled peroxidation reaction. Epicatechin, catechin, 30 -O-methyl epicatechin and (-)-epicatechin-(4b . 8)-epicatechin (Dimer B2) were detected in the plasma within 1 h after the consumption of the beverage. […] The duration of the lag time, which reflects the capacity of cells to buffer free radicals, was increased. […] Erythrocytes from subjects consuming flavonoid-rich cocoa show reduced susceptibility to free radical-induced hemolysis p , 0:05. Keywords: Cocoa, flavanol, membrane oxidation, erythrocyte,-catechin, 3 0 -O-methyl epicatechin Introduction Flavonoids are a diverse group of polyphenolic compounds occurring in fruit, vegetables, tea and red wine. Diets rich in these compounds have been associated with a reduced risk for cardiovascular disease (Knekt et al. 2002, Kris-Etherton et al. 2004, Mennen et al. 2004, Morton et al. 2000, Sagara et al. 2004, Sesso et al. 2003). Depending on their processing, cocoa and chocolate can be rich sources of flavonoids, particularly the subclass of oligomeric flavonoids known as procyanidins (Adamson et al. 1999, Sanchez-Rabaneda et al. 2003, Steinberg et al. 2003) (Figure 1). Flavanols and procyanidins isolated from cocoa and chocolate have received considerable attention over the last several years as potential cardiovascular protective agents with putative positive effects on platelet function, blood pressure regulation, nitric oxide production, oxidative defense and the immune system (Heiss et al. 2003, Maron, 2004; Fisher et al. 2003; Pearson et al. 2002, Sadik et al. 2003, Taubert et al. 2003, Wan et al. 2001). ISSN 1740-2522 print/ISSN 1740-2530 online q 2005 Taylor & Francis Group Ltd. DOI: 10.1080/17402520512331329514 Correspondence: Carl L. Keen, Department of Nutrition, University of California, One Shields Avenue, Davis, CA 95616-8669. Tel: 1 530 752 6331. Fax: 1 530 752 8966. E-mail: clkeen@ucdavis.edu Clinical & Developmental Immunology, March 2005; 12(1): 27-34 These compounds can modulate the actions of oxidant-responsive transcription factor NF-kB (Mackenzie et al. 2004), and diets rich in cocoa flavonoids may be associated with reductions in DNA oxidative damage (Orozco et al. 2003). […]

[1] = plasma flavanol and dimer concentrations by HPLC after cocoa beverage; format: in vivo, human; conditions: for time by which detected in the plasma: after consumption of the cocoa beverage, human subjects; for concentration in human plasma reached: after high dose of cocoa (0.50 g/kg BW)
From the text: as §1

[2] = antioxidant activity (preliminary, unpublished); conditions: preliminary work, unpublished data

Compound | time by which detected in the plasma [1] | concentration in human plasma reached [1] | level of protection compared with ascorbic acid (human erythrocytes) | protection of human erythrocytes from free radical-induced hemolysis at lowest concentration (human erythrocytes) | protection against AAPH-induced erythrocyte hemolysis (human erythrocytes) | protection compared with Dimer B2 (human erythrocytes; individual compounds in vitro) | antioxidant activity compared with Dimer B2 [2]
Oc1cc(O)c2c(c1)O[C@H](c1ccc(O)c(O)c1)[C@H](O)[C@H]2c1c(O)cc2c(c1O)C[C@@H](O)[C@@H](c1ccc(O)c(O)c1)O2 [Dimer B5, epicatechin-(4b . 6)-epicatechin] | – | – | – | – | – | – | more antioxidant activity than Dimer B2
(-)-epicatechin-(4β > 8)epicatechin [Dimer B2] | ≤ 1 h | – | exceeded that of ascorbic acid | – | dose-dependent protection | – | –
COc1cc([C@H]2Oc3cc(O)cc(O)c3C[C@H]2O)ccc1O [3ʹ-O-methyl epicatechin] | ≤ 1 h | – | exceeded that of ascorbic acid | significantly protect | dose-dependent protection | – | –

Second part, led by results:

time by which detected in the plasma [1] | concentration in human plasma reached [1] | Compound | level of protection compared with ascorbic acid (human erythrocytes) | protection of human erythrocytes from free radical-induced hemolysis at lowest concentration (human erythrocytes) | protection against AAPH-induced erythrocyte hemolysis (human erythrocytes) | protection compared with Dimer B2 (human erythrocytes; individual compounds in vitro) | antioxidant activity compared with Dimer B2 [2]
≤ 1 h | 2860 nM | Oc1cc(O)c2c(c1)O[C@H](c1ccc(O)c(O)c1)[C@H](O)C2 [epicatechin, (-)-epicatechin] | exceeded that of ascorbic acid | significantly protect | dose-dependent protection | stronger protection than Dimer B2 | –
≤ 1 h | 210 nm | O.Oc1cc(O)c2c(c1)O[C@H](c1ccc(O)c(O)c1)[C@@H](O)C2 [catechin] | exceeded that of ascorbic acid | significantly protect | dose-dependent protection | – | –
